Where a name gives a salt, the structure may show the parent alone. Read-outs that look alike come from different tables or passages of the source. A value given as a limit tells only on which side of the number the result lay.

These results are taken from US5272175A, “Substituted tyrosyl diamide compounds” (priority 1992, dated 1993).

Test [1] relates to mice. Kind of test: Writhing Assay (phenylbenzoquinone (PBQ)-induced writhing), analgesic activity. The format is in vivo, CD Charles River mice. The following applies: Mus musculus, 50% of mice with writhes <= half control median. The text has this:
The "Writhing Assay" is one of the most widely-used experimental procedures for measuring the analgesic activity of different narcotic and nonnarcotic analgesic agents, and involves the continuous, chemically-induced pain of visceral origin to an animal, such as a mouse or rat. [Gyires et al., Arch. int. Pharmacodyn, 267, 131-140 (1984); C. Vander Wende et al., Fed. Proc., 15, 494 (1956); Koster et al., Fed. Proc., 18, 412 (1959); and Witken et al., J. Pharmacol. Exp. Ther., 133, 400-408 (1961).] Chemicals which may be used to induce this pain include phenylbenzoquinone (PBQ) and acetic acid. As a result of the chemical irritation to the animal, a characteristic stretching and writhing of the animal (dorsiflexion of the animal's back, extension of its hindlimbs and the strong contraction of its abdominal musculature) will generally occur. […] Drugs which reduce the number of writhes of the animal appear to restore the normal nociceptive threshold of the animal.
This assay was conducted generally in the manner described by R. I. Taber, "Predictive Value of Analgesic Assays in Mice and Rats," Advances in Biochemical Phychopharmacology, 8, 191 (1974).
Two hundred CD Charles River mice, weighing 20 to 30 grams, were used in this assay.
Twenty-five minutes after subcutaneous administration, and fifteen minutes after oral administration, to the mice of 10 mg per kilogram (mpk) of body weight of either a tyrosyl diamide compound of the invention (hereinafter "test compound"), or of the Jacobson Compound, 0.1 mL per 10 g of body weight of a 0.025% w/v solution of phenylbenzoquinone (PBQ) was injected intraperitoneally into each mouse. Some mice were given saline in place of a test compound, or of the Jacobson Compound, and were used as a control group.
Five minutes later, each mouse was individually placed into a glass beaker for observation, and the number of writhes occurring during the following ten-minute period was counted.
A compound was considered to be "active" (to have produced analgesia in a mouse) if, after the administration of 10 mg per kilogram (mpk) of body weight of the compound to the mouse, the number of writhes elicited by a mouse injected with PBQ was equal to, or less than, one-half the median number of writhes recorded for the saline-treated control group of mice that day, as described by R. I. Taber, supra.
The standard initial screening dose of a test compound employed in this assay was 10 mpk […] for both routes of administration. If this initial screening dose of the compound produced analgesia in seven of ten mice, then the effect of additional doses of the compound on the writhing response was evaluated, and then the ED50 value (that dose of a compound which produced analgesia in 50% of the mice to which the compound was administered) was calculated. A maximum likelihood function was used to determine the ED50 value. (The slopes of the dose-response curves for the compounds analyzed were compared as described by Tallarida and Murray, Manual of Pharmacologic Calculations, Page 1 (Springer Verlag, N.Y., 1981)).

Another test addresses δ opioid receptors (Rattus norvegicus, UniProt P33533). The test can be described thus: Opiate Binding Assay, displacement of 3[H]-DSLET from δ receptors. To be noted: for Mean IC50 μ/δ Ratio: ratio of mean IC50 values for μ and δ, above 1.0 = more δ specific.
The target in the next test is μ opioid receptors (Rattus norvegicus, UniProt P33535). Kind of test: Opiate Binding Assay, displacement of 3[H]-DAMPGO from μ receptors.
Sequence of μ opioid receptors (P33535 whole entry): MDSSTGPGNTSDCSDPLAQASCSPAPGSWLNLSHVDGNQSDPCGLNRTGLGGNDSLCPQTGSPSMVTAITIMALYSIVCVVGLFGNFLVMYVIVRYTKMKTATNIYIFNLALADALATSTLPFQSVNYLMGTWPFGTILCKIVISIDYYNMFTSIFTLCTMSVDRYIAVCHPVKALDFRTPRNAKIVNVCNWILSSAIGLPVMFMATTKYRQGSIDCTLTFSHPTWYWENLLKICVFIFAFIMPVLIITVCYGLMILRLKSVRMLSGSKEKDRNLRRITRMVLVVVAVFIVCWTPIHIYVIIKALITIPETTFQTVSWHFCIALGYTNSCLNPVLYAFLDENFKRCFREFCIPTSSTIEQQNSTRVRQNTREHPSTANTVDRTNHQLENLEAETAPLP
For test [2], the system named is mice. To be noted: general statement on both tests; cited from earlier work.
Test [3] concerns mice. The following applies: general statement on both tests; cited from earlier work. The source holds these as a separate data set.
Test [4] deals with brain opioid receptor sites. To be noted: cited from earlier work.
The subject of the next test is opioid activity. To be noted: cited from earlier work.
Setting [5] is: sc, 25 min, subcutaneous, PBQ i.p. 25 min after compound, read-out: ED50, Writhing Assay, Subcutaneous (S.C.).

Sequence of δ opioid receptors (P33533 whole entry): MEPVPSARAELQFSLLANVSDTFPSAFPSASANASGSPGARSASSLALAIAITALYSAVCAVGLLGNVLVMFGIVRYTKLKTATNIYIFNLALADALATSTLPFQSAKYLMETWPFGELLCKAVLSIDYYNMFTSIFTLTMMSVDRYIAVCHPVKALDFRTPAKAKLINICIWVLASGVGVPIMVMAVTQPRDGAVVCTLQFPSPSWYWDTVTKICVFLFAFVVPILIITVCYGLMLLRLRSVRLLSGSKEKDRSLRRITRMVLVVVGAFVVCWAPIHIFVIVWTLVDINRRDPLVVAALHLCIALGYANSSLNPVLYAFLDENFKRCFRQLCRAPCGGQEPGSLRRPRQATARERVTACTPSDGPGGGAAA

In general, ED50 refers to the dose that gives a 50% effect, or the effect in half of the subjects. By IC50 is commonly meant the concentration that gives 50% inhibition. As to `Cc1cc(O)cc(C)c1C[C@H](N)C(=O)NC(C)(C)CNC(=O)[C@H](Cc1ccccc1)NC(=O)OCc1ccccc1` [Example 10, Phenylmethyl[1S-[[2-[[2S-amino-3-(4-hydroxy-2,6-dimethylohenyl)-1-oxopropyl]amino]-2-methylpropyl]-amino]carbonyl]-2-phenylethyl]carbamate, monohydrochloride], the ED50 with mice [1] (setting [5]) came to 5 mg/kg. Further, at δ opioid receptors, the IC50 is 4 nM and the “Mean IC50 μ/δ Ratio” value was 0.8. Besides, at μ opioid receptors, the IC50 is 3.3 nM.

`CC(=O)N[C@@H](Cc1ccccc1)C(=O)NCC(C)(C)NC(=O)[C@@H](N)Cc1c(C)cc(OC(C)=O)cc1C` [Example 16, αS-(acetylamino)-N-2-[2-[[4-(acetyloxy)-2,6-dimethylphenyl]-2S-amino-1-oxopropyl]amino]-2-methylpropyl]benzenepropanamide, hydrochloride]: in the test with mice [1] (setting [5]), the ED50 came out at 5 mg/kg. Besides, the “Mean IC50 μ/δ Ratio” value on δ opioid receptors was 0.7. Further, the IC50 at δ opioid receptors (read-out: Mean IC50 Value, δ, rat forebrain membranes, 3[H]-DSLET 1.0 nM, 37° C., pH 7.4) was found to be 0.78 nM; at μ opioid receptors (read-out: Mean IC50 Value, μ, rat forebrain membranes, 3[H]-DAMPGO 2.0 nM, 37° C., pH 7.4) it was 0.51 nM.

Turning to `CC(=O)N[C@@H](CCc1ccccc1)C(=O)NCC(C)(C)NC(=O)[C@@H](N)Cc1c(C)cc(O)cc1C` [Example 18, αS-(acetylamino)-N-[2-[[2S-amino-3-(4-hydroxy-2,6-dimethylohenyl)-1-oxopropyl]amino]-2-methyloropyl]-benzenebutanamide, hydrochloride], the ED50 in the test on mice [1] (setting [5]) worked out at 5 mg/kg. Also, at δ opioid receptors, the IC50 came to 4.7 nM and the “Mean IC50 μ/δ Ratio” value is on record as 0.07. Also, the IC50 at μ opioid receptors is 0.33 nM.

Turning to `CNC(=O)N[C@@H](Cc1ccccc1)C(=O)NCC(C)(C)NC(=O)[C@@H](N)Cc1c(C)cc(O)cc1C` [Example 37, αS-amino-N-1,1-dimethyl-2-[2S-[[(methylamino)carbonyl]amino]-1-oxo-3-phenylpropyl]amino]ethyl]-4-hydroxy-2,6-dimethylbenzeneoropanamide, monohydrochloride], the ED50 with mice [1] (setting [5]) turned out to be 5 mg/kg. In addition, the IC50 on δ opioid receptors was ~2 nM; on μ opioid receptors, < 10 nM.

For `CC(=O)N[C@@H](Cc1c(C)cccc1C)C(=O)NCCNC(=O)[C@@H](N)Cc1c(C)cc(O)cc1C` [Example 52, αS-(Acetylamino)-N-[2-[[2S-amino-3-(4-hydroxy-2,6-dimethylphenyl)-1-oxopropyl]amino]ethyl]-2,6-dimethylbenzeneoropanamide, hydrochloride], in the test with mice [1] (setting [5]), the 50% effective dose (ED50) was 5 mg/kg. Further, the figures for the IC50 at δ opioid receptors and on μ opioid receptors were 32 nM and 0.6 nM, respectively.

With `CC(=O)N[C@@H](Cc1ccccc1)C(=O)N1CCC(NC(=O)[C@@H](N)Cc2c(C)cc(O)cc2C)C1` (stereo partly drawn) [Example 56, N-1-[2S-(Acetylamino)-1-oxo-3-phenylpropyl]-3-pyrrolidinyl]-αS-amino-4-hydroxy-2,6-dimethylbenzenepropanamide, monohydrochloride], the results for the 50% inhibitory concentration (IC50) at δ opioid receptors and at μ opioid receptors were 50.3 nM and 85.5 nM, respectively. Moreover, on δ opioid receptors, the “Mean IC50 μ/δ Ratio” value is on record as 1.7.

In the case of `Cc1cc(O)cc(C)c1C[C@H](N)C(=O)NC(C)(C)CNC(=O)[C@H](Cc1ccccc1)NC(=O)NS(=O)(=O)c1ccccc1` [Example 59, S-amino-N-[1,1-dimethyl-2-[[1-oxo-3-phenyl-2S-[[[(phenylsulfonyl)amino]carbonyl]amino]propyl]amino]ethyl]-4-hydroxy-2,6-dimethylbenzeneoropanamide, monohydrochloride], the IC50 at δ opioid receptors turned out to be 7.3 nM; on μ opioid receptors it was 3.2 nM. Further, the “Mean IC50 μ/δ Ratio” value on δ opioid receptors worked out at 0.4.

Consider `CC(=O)N[C@@H](Cc1ccccc1)C(=O)NCC(C)(C)NC(=O)[C@@H](N)Cc1ccc(O)cc1` [Jacobson Compound, reference compound], for which the median effective dose (ED50) in the test with mice [1] (0.25 h, oral, PBQ i.p. 15 min after compound, read-out: ED50, Writhing Assay, Oral (p.o.)) is 4.1 mg/kg; with mice [1] (setting [5]) it was 1.6 mg/kg. For the same compound, the IC50 stood at 2 nM on δ opioid receptors and 0.6 nM at μ opioid receptors. The “Mean IC50 μ/δ Ratio” value on δ opioid receptors is 0.3.

As to `Cc1cc(CC(=O)O)n(C)c1C(=O)c1ccc(Cl)cc1` [Zomax], in the test on mice [2], the “activity in Tail Flick Assay” value is listed as “little activity”. For the same compound, the “activity in Hot Plate Assay” value in the test on mice [3] was “little activity”.

For `CC(=O)Oc1ccccc1C(=O)O` [aspirin], the “activity in Tail Flick Assay” value with mice [2] is “little activity”. Moreover, in the test with mice [3], the “activity in Hot Plate Assay” value is “little activity”.

Take `COc1ccc2c3c1O[C@H]1[C@@H](O)C=C[C@H]4[C@@H](C2)N(C)CC[C@@]341` [codeine]: the “activity in Tail Flick Assay” value in the test on mice [2] is recorded as “active in both of these tests”. The “activity in Hot Plate Assay” value in the test with mice [3] was “active in both of these tests”.

As to `CC(C)C[C@H](NC(=O)[C@H](Cc1ccccc1)NC(=O)CNC(=O)CNC(=O)[C@@H](N)Cc1ccc(O)cc1)C(=O)O` [leucine enkephalin, H2 N-Tyr-Gly-Gly-Phe-Leu-OH], the “binding to opiate / brain opioid receptor sites” value in test [4] is given as “bind to the same receptor sites as do the opiates”. Further, the “opioid / morphine-like activity” value in the test with opioid activity was “some weak morphine-like actions”.

For the compound `CSCC[C@H](NC(=O)[C@H](Cc1ccccc1)NC(=O)CNC(=O)CNC(=O)[C@@H](N)Cc1ccc(O)cc1)C(=O)O` [methionine enkephalin, H2 N-Tyr-Gly-Gly-Phe-Met-OH], in test [4], the “binding to opiate / brain opioid receptor sites” value is listed as “bind to the same receptor sites as do the opiates”. In addition, the “opioid / morphine-like activity” value with opioid activity is reported as “some weak morphine-like actions”.

Turning to `CN1CC[C@]23c4c5ccc(O)c4O[C@H]2[C@@H](O)C=C[C@H]3[C@H]1C5` [morphine], the “activity in Tail Flick Assay” value in the test with mice [2] is given as “active in both of these tests”. Moreover, the “activity in Hot Plate Assay” value in the test on mice [3] is “active in both of these tests”.
